{"source": "patent US20190328828A1", "about": "“PHARMACEUTICAL COMPOSITION, PROCESS FOR PRODUCING THE SAME, USE OF A PEPTIDE, USE OF A PHARMACEUTICAL COMPOSITION AND METHOD FOR TREATING DISEASES ASSOCIATED WITH INTRAOCULAR HYPERTENSION OR GLAUCOMA” (UNIAO QUIMICA FARMACEUTICA NACIONAL S/A, priority 2017, published 2019)", "key": {"patients": {"test_system": "patients", "settings": "patients treated chronically; cited from earlier work"}, "[1]": {"description": "The absorption and biological stability tests were performed with solutions of the peptide-cyclodextrin inclusion compound. To carry out the experiments, 12 normal Wistar rats were used, which had previously cannulated the left femoral artery. […] Four blood draws (1 mL) were carried out, being the first prior to gavage, and the three others within 2, 6 and 24 hours after gavage"}, "[2]": {"test": "Long-term and accelerated stability study of raw material", "format": "physicochemical", "description": "Stability is defined as the time during which pharmaceutical expertise or even raw material considered alone is maintained within specified limits and throughout the period of storage and use, the same conditions and characteristics that had upon the time of their manufacture.\nStability study was carried out in two conditions, the condition A being at 5° C.±3° C. with no humidity and condition B 25° C.±2° C. with the relative humidity of 60%±5%."}, "ACE": {"molecular_target": "ACE (Homo sapiens, UniProt P12821)", "sequence (P12821 30-1306, species assumed)": "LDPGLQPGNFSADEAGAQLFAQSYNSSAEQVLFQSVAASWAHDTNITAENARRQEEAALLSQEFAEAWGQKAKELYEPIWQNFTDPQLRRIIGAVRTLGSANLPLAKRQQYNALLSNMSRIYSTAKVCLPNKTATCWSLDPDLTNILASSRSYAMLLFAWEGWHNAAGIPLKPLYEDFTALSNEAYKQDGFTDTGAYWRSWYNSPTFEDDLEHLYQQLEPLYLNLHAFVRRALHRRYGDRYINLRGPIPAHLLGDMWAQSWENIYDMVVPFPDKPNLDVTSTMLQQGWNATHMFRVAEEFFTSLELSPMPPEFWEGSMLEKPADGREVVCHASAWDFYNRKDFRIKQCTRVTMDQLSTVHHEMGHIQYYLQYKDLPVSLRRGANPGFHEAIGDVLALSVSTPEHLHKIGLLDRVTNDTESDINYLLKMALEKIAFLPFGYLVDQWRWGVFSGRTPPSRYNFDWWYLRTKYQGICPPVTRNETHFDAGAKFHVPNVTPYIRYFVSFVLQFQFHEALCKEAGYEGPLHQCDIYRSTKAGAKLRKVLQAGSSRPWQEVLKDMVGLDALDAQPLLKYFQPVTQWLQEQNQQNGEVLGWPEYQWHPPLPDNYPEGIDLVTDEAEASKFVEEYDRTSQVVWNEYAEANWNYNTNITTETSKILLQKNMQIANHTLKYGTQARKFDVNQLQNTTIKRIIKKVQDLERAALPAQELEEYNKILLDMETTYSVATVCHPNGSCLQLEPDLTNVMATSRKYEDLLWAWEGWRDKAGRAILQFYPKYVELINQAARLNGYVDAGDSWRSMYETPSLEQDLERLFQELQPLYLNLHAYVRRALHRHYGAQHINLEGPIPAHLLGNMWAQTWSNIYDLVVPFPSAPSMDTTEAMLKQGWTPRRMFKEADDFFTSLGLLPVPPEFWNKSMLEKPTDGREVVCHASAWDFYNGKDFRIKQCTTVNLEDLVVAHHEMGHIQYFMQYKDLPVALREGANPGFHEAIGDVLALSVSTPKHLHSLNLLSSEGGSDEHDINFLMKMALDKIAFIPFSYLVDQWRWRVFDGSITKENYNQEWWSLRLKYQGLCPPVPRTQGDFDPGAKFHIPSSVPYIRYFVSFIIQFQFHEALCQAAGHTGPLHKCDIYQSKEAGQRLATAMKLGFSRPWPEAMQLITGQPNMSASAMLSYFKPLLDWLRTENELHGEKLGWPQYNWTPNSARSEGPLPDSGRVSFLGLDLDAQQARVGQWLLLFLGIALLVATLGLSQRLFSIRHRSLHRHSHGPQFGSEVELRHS", "settings": "read-out: IC50 for inhibiting ACE; cited from earlier work"}, "rats": {"test_system": "rats", "settings": "free (non-encapsulated) peptide, RVLB microinjection, 25-50 ng, previous studies; cited from earlier work"}, "ganglion cells": {"test_system": "ganglion cells", "settings": "rat retina explant model, White et al (2015); cited from earlier work"}}}
{"compound": "CCC[C@H](N[C@@H](C)C(=O)N1[C@H](C(=O)O)C[C@@H]2CCCC[C@@H]21)C(=O)OCC", "note": "[perindopril]", "values": [{"measurement": "reduction of the risk of dementia", "setting": "patients", "result": 34, "unit": "%"}]}
{"compound": "CCOC(=O)[C@H](CCc1ccccc1)N[C@@H](C)C(=O)N1CCC[C@H]1C(=O)O", "note": "[enalapril]", "values": [{"measurement": "reduction of the risk of dementia", "setting": "patients", "result": 55, "unit": "%"}]}
{"compound": "CC[C@H](C)[C@H](NC(=O)[C@H](Cc1ccc(O)cc1)NC(=O)[C@@H](NC(=O)[C@H](CCCNC(=N)N)NC(=O)[C@@H](N)CC(=O)O)C(C)C)C(=O)N[C@@H](Cc1c[nH]cn1)C(=O)N1CCC[C@H]1C(=O)O", "note": "[SEQ ID NO: 1, Asp-Arg-Val-Tyr-Ile-His-Pro]", "values": [{"measurement": "increase in plasma concentration, times less than with SEQ ID NO: 1 βcyclodextrin", "setting": "[1]; 6 hours after gavage", "result": "about 8 times"}, {"measurement": "level at 6 h", "setting": "[1]; rat, in vivo, po, 10 ug/50 ul", "result": "0.086 ± 0.013", "unit": "ng/mL"}, {"measurement": "time for which the raw material is stable, long-term condition", "setting": "[2]; 5° C.±3° C., no humidity", "result": 36, "unit": "months"}, {"measurement": "time for which the raw material is stable, accelerated condition", "setting": "[2]; 25° C.±2° C., 60% relative humidity", "result": 6, "unit": "months"}, {"measurement": "IC50", "setting": "ACE", "result": "~1", "unit": "µM"}, {"measurement": "duration of pressor effect", "setting": "rats", "result": "approximately 10 min"}, {"measurement": "increase in arterial pressure", "setting": "rats", "result": 15, "unit": "mmHg"}]}
{"compound": "Angiotensin II", "values": [{"measurement": "reduction of survival of ganglion cells", "setting": "ganglion cells", "result": 40, "unit": "%"}]}
{"compound": "CCCCC1=NC2(CCCC2)C(=O)N1Cc1ccc(-c2ccccc2-c2nnn[nH]2)cc1", "note": "[irbesartan]", "values": [{"measurement": "survival of ganglion cells", "setting": "ganglion cells", "result": "doubled"}]}
